Drawing on ChEMBL document CHEMBL3124838, “Discovery of 6-aryl-azabenzimidazoles that inhibit the TBK1/IKK-ε kinases” (Bioorg Med Chem Lett, 2014), this text covers Activity for three molecules.

The target of test [1] is T1, Serine/threonine-protein kinase ULK2 (Homo sapiens) (UniProt Q8IYT8).
T1 sequence (whole entry): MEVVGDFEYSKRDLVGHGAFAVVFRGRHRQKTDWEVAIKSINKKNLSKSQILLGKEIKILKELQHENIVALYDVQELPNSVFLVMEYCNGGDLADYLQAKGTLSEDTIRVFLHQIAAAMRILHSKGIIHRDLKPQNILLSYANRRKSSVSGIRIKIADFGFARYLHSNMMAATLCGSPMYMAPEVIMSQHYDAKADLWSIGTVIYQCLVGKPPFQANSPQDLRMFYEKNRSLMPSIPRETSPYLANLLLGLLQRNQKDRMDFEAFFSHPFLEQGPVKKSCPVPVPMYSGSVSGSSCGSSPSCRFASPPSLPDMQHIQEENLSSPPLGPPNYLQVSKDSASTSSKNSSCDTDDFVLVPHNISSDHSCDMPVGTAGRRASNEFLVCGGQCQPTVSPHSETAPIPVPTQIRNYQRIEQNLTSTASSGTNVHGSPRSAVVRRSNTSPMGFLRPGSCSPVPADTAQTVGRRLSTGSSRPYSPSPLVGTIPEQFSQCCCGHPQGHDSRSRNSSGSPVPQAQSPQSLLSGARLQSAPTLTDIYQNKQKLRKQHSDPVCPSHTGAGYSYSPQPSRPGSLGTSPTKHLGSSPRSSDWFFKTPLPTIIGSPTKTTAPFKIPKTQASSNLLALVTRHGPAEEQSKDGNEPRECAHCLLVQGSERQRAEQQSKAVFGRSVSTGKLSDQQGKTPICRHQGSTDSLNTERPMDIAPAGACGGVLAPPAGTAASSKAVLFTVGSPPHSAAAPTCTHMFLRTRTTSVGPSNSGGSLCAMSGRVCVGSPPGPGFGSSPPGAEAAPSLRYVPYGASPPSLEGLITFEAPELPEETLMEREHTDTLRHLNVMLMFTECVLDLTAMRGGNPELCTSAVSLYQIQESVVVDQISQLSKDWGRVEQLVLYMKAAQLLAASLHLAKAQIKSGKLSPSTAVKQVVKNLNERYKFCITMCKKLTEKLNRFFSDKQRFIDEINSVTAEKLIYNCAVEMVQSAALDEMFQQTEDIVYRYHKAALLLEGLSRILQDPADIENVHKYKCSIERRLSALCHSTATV
The experiment in a line: Inhibition of human ULK2 assessed as residual activity at 1 uM relative to control.

Test [2] deals with Protein kinase C theta type (Homo sapiens) (UniProt Q04759). The experiment in a line: Inhibition of human PKC-theta assessed as residual activity at 1 uM relative to control.
Test [3] has as its target CDK9/cyclin T1 (Homo sapiens) (UniProt O60563+P50750). Kind of test: Inhibition of human CDK9/cyclin T1 assessed as residual activity at 1 uM relative to control. In kind it is protein-complex assay.
In test [4] the target is Fibroblast growth factor receptor 3 (Homo sapiens) (UniProt P22607). The experiment in a line: Inhibition of human FGFR3 assessed as residual activity at 1 uM relative to control.
In test [5] the target is Cyclin-dependent kinase 1/cyclin B1 (Homo sapiens) (UniProt P06493+P14635). Kind of test: Inhibition of human CDK1/cyclin B assessed as residual activity at 1 uM relative to control. In kind it is protein-complex assay.
The target in the next test is Aurora kinase B (Homo sapiens, UniProt Q96GD4). Kind of test: Inhibition of human Aurora-B assessed as residual activity at 1 uM relative to control.
Test [6] addresses CDK2/Cyclin A2 (Homo sapiens) (UniProt P24941+P20248). The experiment in a line: Inhibition of human CDK2/cyclin A assessed as residual activity at 1 uM relative to control. In kind it is protein-complex assay.
The test system of test [7] is Epidermal growth factor receptor (Homo sapiens), P00533 [L858R,T790M]. The experiment in a line: Inhibition of human EGFR T790M/L858R double mutant assessed as residual activity at 1 uM relative to control. Type of test: protein assay.
Test [8] addresses T2, Serine/threonine-protein kinase 4 (Homo sapiens) (UniProt Q13043).
T2 sequence (whole entry): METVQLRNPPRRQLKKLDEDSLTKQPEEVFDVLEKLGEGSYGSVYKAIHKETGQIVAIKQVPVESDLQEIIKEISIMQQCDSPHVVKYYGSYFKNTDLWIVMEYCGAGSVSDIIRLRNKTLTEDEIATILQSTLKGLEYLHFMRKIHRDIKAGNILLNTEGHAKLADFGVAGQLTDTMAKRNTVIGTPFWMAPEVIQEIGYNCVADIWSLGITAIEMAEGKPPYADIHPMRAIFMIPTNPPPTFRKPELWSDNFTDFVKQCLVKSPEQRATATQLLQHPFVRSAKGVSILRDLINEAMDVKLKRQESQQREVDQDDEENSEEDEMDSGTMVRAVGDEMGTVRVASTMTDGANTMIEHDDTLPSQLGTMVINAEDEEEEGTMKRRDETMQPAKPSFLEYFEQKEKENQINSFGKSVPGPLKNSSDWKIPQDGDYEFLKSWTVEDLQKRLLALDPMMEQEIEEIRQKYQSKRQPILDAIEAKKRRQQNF
The experiment in a line: Inhibition of human MST1 assessed as residual activity at 1 uM relative to control.

Test [9] concerns the target T3, Dual specificity mitogen-activated protein kinase kinase 7 (Homo sapiens) (UniProt O14733).
T3 sequence (whole entry): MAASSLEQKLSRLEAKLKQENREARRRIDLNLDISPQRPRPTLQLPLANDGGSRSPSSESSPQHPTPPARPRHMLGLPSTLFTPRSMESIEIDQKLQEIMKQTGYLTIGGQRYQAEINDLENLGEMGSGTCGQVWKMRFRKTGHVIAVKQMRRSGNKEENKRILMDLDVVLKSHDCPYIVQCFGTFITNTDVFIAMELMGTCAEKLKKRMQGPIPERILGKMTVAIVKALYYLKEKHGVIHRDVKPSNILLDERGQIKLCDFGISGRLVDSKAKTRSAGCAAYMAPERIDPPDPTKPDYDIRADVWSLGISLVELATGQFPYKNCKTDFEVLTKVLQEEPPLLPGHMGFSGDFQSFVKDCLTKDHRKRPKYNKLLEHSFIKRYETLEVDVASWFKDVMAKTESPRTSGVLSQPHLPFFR
The experiment in a line: Inhibition of human MKK7beta assessed as residual activity at 1 uM relative to control.

Test [10] deals with Tyrosine-protein kinase Lck (Homo sapiens) (UniProt P06239). The experiment in a line: Inhibition of human LCK assessed as residual activity at 1 uM relative to control.
For test [11], the target named is Mast/stem cell growth factor receptor Kit (Homo sapiens) (UniProt P10721). Kind of test: Inhibition of human cKIT assessed as residual activity at 1 uM relative to control.
Test [12] concerns the target Platelet-derived growth factor receptor beta (Homo sapiens) (UniProt P09619). The experiment in a line: Inhibition of human PDGFRbeta assessed as residual activity at 1 uM relative to control.
The target in test [13] is PI3-kinase p110-delta/p85-alpha (Homo sapiens) (UniProt P27986+O00329). Kind of test: Inhibition of human PI3K p110delta/p85alpha assessed as residual activity at 1 uM relative to control. Type of test: protein-complex assay.

Sequence of Tyrosine-protein kinase Lck (Homo sapiens) (P06239 2-509 limits assumed): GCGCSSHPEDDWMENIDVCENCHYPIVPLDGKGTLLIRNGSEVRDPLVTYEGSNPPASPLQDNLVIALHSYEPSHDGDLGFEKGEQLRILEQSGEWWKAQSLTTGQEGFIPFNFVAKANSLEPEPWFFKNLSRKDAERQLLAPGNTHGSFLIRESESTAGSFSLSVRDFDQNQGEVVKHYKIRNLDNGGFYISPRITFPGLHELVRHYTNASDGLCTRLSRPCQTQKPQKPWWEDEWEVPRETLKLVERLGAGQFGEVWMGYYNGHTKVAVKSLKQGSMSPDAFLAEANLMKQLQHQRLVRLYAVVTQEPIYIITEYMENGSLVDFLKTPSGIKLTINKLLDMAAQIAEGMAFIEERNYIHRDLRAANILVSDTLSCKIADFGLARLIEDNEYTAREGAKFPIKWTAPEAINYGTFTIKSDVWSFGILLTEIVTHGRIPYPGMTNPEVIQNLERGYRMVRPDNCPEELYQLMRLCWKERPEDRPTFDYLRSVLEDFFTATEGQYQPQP
Sequence of Aurora kinase B (Q96GD4 whole entry): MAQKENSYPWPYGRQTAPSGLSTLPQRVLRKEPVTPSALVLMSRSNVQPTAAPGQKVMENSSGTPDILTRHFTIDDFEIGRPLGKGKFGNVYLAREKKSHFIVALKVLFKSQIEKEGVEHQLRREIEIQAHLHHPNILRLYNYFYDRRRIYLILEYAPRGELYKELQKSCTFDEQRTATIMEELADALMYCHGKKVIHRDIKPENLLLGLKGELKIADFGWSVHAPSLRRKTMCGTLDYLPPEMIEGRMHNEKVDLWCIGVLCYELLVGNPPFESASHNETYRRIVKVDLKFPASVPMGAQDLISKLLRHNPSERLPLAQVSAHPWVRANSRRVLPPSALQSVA
Sequence of Protein kinase C theta type (Homo sapiens) (Q04759 whole entry, looked up): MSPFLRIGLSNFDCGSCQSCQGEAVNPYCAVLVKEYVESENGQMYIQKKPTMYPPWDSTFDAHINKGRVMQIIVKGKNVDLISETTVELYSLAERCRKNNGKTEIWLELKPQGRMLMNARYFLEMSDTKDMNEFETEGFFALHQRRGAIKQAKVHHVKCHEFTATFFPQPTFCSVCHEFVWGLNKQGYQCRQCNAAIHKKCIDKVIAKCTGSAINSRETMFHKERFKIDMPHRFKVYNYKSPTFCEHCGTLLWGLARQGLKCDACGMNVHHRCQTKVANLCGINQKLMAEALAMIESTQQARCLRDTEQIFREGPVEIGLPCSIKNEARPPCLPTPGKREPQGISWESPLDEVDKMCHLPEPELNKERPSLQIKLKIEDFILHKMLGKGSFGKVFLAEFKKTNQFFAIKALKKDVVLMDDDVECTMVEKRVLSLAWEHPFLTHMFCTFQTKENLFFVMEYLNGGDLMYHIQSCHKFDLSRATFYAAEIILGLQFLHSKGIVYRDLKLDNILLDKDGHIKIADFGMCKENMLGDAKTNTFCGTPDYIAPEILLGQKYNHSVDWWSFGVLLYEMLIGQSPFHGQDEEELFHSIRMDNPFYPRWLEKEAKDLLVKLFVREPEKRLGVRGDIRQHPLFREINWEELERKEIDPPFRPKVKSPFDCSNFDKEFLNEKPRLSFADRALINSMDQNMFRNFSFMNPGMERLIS
Sequence of Platelet-derived growth factor receptor beta (Homo sapiens) (P09619 whole entry): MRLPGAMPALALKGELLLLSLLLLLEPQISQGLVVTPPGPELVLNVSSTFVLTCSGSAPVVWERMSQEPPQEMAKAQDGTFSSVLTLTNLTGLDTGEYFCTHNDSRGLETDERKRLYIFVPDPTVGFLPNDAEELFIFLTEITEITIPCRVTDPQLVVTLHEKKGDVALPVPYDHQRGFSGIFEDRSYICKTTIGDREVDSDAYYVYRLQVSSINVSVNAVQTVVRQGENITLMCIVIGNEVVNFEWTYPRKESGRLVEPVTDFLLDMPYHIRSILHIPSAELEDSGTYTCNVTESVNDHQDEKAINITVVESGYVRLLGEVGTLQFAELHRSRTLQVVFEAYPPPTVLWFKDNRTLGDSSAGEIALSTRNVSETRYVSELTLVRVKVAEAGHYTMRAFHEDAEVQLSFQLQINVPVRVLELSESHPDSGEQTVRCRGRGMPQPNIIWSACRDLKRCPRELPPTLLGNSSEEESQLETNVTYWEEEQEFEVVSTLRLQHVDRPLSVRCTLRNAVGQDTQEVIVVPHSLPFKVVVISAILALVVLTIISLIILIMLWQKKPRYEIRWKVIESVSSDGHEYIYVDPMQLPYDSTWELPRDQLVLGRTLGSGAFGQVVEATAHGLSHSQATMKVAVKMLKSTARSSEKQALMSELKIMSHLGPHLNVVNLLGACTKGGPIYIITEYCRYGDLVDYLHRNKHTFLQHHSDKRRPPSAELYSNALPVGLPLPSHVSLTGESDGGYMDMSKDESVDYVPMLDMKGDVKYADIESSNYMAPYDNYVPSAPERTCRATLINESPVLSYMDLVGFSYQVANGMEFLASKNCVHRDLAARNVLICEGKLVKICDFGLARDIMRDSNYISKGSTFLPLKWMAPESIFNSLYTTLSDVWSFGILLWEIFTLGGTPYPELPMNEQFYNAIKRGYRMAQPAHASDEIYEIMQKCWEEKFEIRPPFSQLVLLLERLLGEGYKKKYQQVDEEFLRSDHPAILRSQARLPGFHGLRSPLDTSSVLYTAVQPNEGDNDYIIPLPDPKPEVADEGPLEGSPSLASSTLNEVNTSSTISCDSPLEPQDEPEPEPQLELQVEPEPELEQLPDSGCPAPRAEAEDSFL
Sequence of Fibroblast growth factor receptor 3 (Homo sapiens) (P22607 23-806 limits assumed): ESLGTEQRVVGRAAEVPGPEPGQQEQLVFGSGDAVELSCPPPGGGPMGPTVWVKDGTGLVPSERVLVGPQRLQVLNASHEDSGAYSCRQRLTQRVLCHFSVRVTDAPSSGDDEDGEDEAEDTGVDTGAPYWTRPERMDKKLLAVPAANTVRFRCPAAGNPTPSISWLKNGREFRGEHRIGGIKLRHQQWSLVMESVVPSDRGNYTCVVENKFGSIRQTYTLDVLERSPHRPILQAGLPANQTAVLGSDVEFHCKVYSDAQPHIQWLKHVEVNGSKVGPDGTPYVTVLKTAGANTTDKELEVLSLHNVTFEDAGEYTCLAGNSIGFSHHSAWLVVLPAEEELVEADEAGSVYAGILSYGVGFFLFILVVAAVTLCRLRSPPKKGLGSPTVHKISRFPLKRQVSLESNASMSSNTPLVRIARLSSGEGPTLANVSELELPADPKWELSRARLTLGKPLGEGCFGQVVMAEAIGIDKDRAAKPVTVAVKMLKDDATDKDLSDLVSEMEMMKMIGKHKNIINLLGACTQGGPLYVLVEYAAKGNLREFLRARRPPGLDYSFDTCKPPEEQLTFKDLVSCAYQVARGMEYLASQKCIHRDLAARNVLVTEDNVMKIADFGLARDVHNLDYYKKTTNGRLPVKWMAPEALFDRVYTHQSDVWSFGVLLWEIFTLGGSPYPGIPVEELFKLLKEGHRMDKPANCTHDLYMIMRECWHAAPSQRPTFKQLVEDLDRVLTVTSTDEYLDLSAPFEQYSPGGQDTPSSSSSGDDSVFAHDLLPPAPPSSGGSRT
Sequence of Mast/stem cell growth factor receptor Kit (Homo sapiens) (P10721 whole entry): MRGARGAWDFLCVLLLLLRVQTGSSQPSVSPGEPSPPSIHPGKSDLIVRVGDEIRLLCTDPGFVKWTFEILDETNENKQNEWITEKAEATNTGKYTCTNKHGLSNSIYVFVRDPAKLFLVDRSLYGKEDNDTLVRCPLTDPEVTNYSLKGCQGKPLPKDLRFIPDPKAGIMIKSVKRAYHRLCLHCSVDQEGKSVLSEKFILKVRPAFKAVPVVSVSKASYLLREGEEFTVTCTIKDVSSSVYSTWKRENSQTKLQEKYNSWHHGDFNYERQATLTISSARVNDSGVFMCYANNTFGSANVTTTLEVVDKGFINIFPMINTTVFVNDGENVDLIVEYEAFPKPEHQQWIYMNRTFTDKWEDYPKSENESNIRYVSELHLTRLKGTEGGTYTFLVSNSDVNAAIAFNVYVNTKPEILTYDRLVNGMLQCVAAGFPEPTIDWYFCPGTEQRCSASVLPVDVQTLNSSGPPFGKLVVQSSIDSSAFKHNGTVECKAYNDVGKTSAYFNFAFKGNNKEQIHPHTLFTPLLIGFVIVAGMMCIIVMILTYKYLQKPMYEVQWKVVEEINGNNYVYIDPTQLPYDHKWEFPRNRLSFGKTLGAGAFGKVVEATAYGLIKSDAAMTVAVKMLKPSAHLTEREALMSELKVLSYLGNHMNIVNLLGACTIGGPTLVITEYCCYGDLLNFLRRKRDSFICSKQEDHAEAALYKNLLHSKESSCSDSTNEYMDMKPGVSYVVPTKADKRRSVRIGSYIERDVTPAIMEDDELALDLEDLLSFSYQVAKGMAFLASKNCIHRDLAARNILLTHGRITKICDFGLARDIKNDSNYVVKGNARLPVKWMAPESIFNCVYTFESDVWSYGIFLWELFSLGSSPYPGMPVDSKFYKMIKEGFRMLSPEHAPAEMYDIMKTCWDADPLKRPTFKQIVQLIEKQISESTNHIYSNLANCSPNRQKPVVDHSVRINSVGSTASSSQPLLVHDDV

For `COc1ccc(-c2nc3cc(-c4csc(C(=O)NCC(C)(C)C)c4)cnc3[nH]2)cc1`, the Activity in [1] turned out to be 53%; in test [2], 90%; in test [3] it was 103%; in test [4], 80%; in test [5] it was 89%; on Aurora kinase B, 75%. The Activity in [6] stood at 98%; in [7], 94%; in [8], 122%; in [9] it was 88%; in test [10] it was 64%; in test [11], 112%. For the same molecule, the Activity came out at 82% in test [12] and 91% in test [13].

Take `COc1ccc(-c2nc3cc(-c4csc(C(=O)NCCC(C)C)c4)cnc3[nH]2)cc1`: the Activity in test [1] stood at 40%; in test [2], 98%; in [3], 95%; in test [4], 79%; in test [5], 68%; on Aurora kinase B, 78%. Further, the Activity was 92% in [6]; 76% in test [7]; 116% in [8]; 92% in test [9]; 31% in test [10]; 107% in test [11]. In addition, the Activity in test [12] was determined as 70%; in test [13], 95%.

Take `COc1ccc(-c2nc3cc(-c4csc(C(=O)NCC(C)C)c4)cnc3[nH]2)cc1`: the Activity in test [1] was found to be 42%; in test [2] it was 89%; in test [3], 100%; in test [4], 62%; in test [5], 68%; at Aurora kinase B it was 43%. The Activity in test [6] was 103%; in test [7] it was 90%; in test [8], 115%; in test [9] it was 94%; in test [10] it was 44%; in test [11], 103%. In addition, the results for the Activity in [12] and in [13] were 64% and 94%, respectively.
